Test system: 994946-033-R-J1-PDC complex spheroid viability
Assay: Anticancer human tumor 994946-033-R-J1-PDC patient-derived melanoma cell line growth inhibition [POLQ]
Conditions: for IC50: curve of first compound; for viability, T/C: stronger effect = lower value; active means viability on the fitted dose curve at most 10% of control; inactive means the rest
Method in brief: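 Three-cell-type spheroids modelling solid tumor plus stroma served as the readout system; POL inhibitors were tested individually and in combination, concentration ranges set by clinical Cmax where known.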

[1] = second compound 0.0316 µM, first compound 0.00949 µM
[2] = second compound 0.0316 µM, first compound 0.03 µM
[3] = second compound 0.0316 µM, first compound 0.0949 µM
[4] = second compound 0.0316 µM, first compound 0.3 µM
[5] = second compound 0.0316 µM, first compound 0.949 µM
[6] = second compound 0.0316 µM, first compound 3 µM
[7] = second compound 0.1 µM, first compound 0.00949 µM
[8] = second compound 0.1 µM, first compound 0.03 µM
[9] = second compound 0.1 µM, first compound 0.0949 µM
[10] = second compound 0.1 µM, first compound 0.3 µM
[11] = second compound 0.1 µM, first compound 0.949 µM
[12] = second compound 0.1 µM, first compound 3 µM
[13] = second compound 0.316 µM, first compound 0.00949 µM
[14] = second compound 0.316 µM, first compound 0.03 µM
[15] = second compound 0.316 µM, first compound 0.0949 µM
[16] = second compound 0.316 µM, first compound 0.3 µM
[17] = second compound 0.316 µM, first compound 0.949 µM
[18] = second compound 0.316 µM, first compound 3 µM
[19] = second compound 1 µM, first compound 0.00949 µM
[20] = second compound 1 µM, first compound 0.03 µM
[21] = second compound 1 µM, first compound 0.0949 µM
[22] = second compound 1 µM, first compound 0.3 µM
[23] = second compound 1 µM, first compound 0.949 µM
[24] = second compound 1 µM, first compound 3 µM
[25] = second compound 3.16 µM, first compound 0.00949 µM
[26] = second compound 3.16 µM, first compound 0.03 µM
[27] = second compound 3.16 µM, first compound 0.0949 µM
[28] = second compound 3.16 µM, first compound 0.3 µM
[29] = second compound 3.16 µM, first compound 0.949 µM
[30] = second compound 3.16 µM, first compound 3 µM
[31] = second compound 10 µM, first compound 0.00949 µM
[32] = second compound 10 µM, first compound 0.03 µM
[33] = second compound 10 µM, first compound 0.0949 µM
[34] = second compound 10 µM, first compound 0.3 µM
[35] = second compound 10 µM, first compound 0.949 µM
[36] = second compound 10 µM, first compound 3 µM
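Further: spheroids exposed to drugs for 7 days.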
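Wherever viability, T/C is given: 100% = DMSO vehicle treated spheroids.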

CC(=O)O[C@H]1C(=O)[C@@]2(C)[C@H]([C@H](OC(=O)c3ccccc3)[C@]3(O)C[C@H](OC(=O)[C@H](O)[C@@H](NC(=O)c4ccccc4)c4ccccc4)C(C)=C1C3(C)C)[C@]1(OC(C)=O)CO[C@@H]1C[C@@H]2O + COC1C(OC(N)=O)C(O)C(Oc2ccc3c(O)c(NC(=O)c4ccc(O)c(CC=C(C)C)c4)c(=O)oc3c2C)OC1(C)C
< 9.49 nM: IC50 (second compound 0.0316 µM) | IC50 (second compound 0.1 µM) | IC50 (second compound 0.316 µM) | IC50 (second compound 1 µM) | IC50 (second compound 3.16 µM) | IC50 (second compound 10 µM)
active: viability, T/C [6] 10.4% | viability, T/C [36] 8.96%
inactive: viability, T/C [1] 23.9% | viability, T/C [2] 25.3% | viability, T/C [3] 16.4% | viability, T/C [4] 12.5% | viability, T/C [5] 12% | viability, T/C [7] 24.4% | viability, T/C [8] 20.5% | viability, T/C [9] 14.5% | viability, T/C [10] 11.9% | viability, T/C [11] 14.2% | viability, T/C [12] 9.19% | viability, T/C [13] 20.4% | viability, T/C [14] 23.3% | viability, T/C [15] 23.7% | viability, T/C [16] 17.2% | viability, T/C [17] 15.4% | viability, T/C [18] 14.9% | viability, T/C [19] 22.8% | viability, T/C [20] 18% | viability, T/C [21] 17.1% | viability, T/C [22] 18.5% | viability, T/C [23] 14.7% | viability, T/C [24] 10.9% | viability, T/C [25] 23.8% | viability, T/C [26] 20.4% | viability, T/C [27] 19.9% | viability, T/C [28] 15.4% | viability, T/C [29] 15.1% | viability, T/C [30] 11.3% | viability, T/C [31] 21.5% | viability, T/C [32] 26% | viability, T/C [33] 16.2% | viability, T/C [34] 12.8% | viability, T/C [35] 14.9%

CC(=O)O[C@H]1C(=O)[C@@]2(C)[C@H]([C@H](OC(=O)c3ccccc3)[C@]3(O)C[C@H](OC(=O)[C@H](O)[C@@H](NC(=O)c4ccccc4)c4ccccc4)C(C)=C1C3(C)C)[C@]1(OC(C)=O)CO[C@@H]1C[C@@H]2O + Nc1ccc(C#CCN(C(=O)Cc2ncc(C(F)(F)F)cc2C(F)(F)F)c2ccc(F)cc2)nn1
< 9.49 nM: IC50 (second compound 0.0316 µM) | IC50 (second compound 0.1 µM) | IC50 (second compound 0.316 µM) | IC50 (second compound 1 µM) | IC50 (second compound 3.16 µM) | IC50 (second compound 10 µM)
inactive: viability, T/C [1] 20.4% | viability, T/C [2] 18.5% | viability, T/C [3] 14.8% | viability, T/C [4] 22% | viability, T/C [5] 13.5% | viability, T/C [6] 12% | viability, T/C [7] 25.9% | viability, T/C [8] 23.6% | viability, T/C [9] 19.4% | viability, T/C [10] 15.9% | viability, T/C [11] 9.63% | viability, T/C [12] 13.3% | viability, T/C [13] 22.3% | viability, T/C [14] 20.8% | viability, T/C [15] 20.4% | viability, T/C [16] 15.9% | viability, T/C [17] 13.8% | viability, T/C [18] 13.9% | viability, T/C [19] 29.7% | viability, T/C [20] 24.9% | viability, T/C [21] 20% | viability, T/C [22] 20% | viability, T/C [23] 15.3% | viability, T/C [24] 13.2% | viability, T/C [25] 29.2% | viability, T/C [26] 24.2% | viability, T/C [27] 18.4% | viability, T/C [28] 15.3% | viability, T/C [29] 14.1% | viability, T/C [30] 12.1% | viability, T/C [31] 24.8% | viability, T/C [32] 24% | viability, T/C [33] 25% | viability, T/C [34] 18% | viability, T/C [35] 18.9% | viability, T/C [36] 12.2%
